Measured values published in the supplement of paper PMC10307832.

Experiments:
Test in all cases: relative viability (nuclei count vs DMSO), 5 days (fraction); higher = more cells survive
[1] = compound: NC(=O)c1ccc(N(C(N)=O)c2c(F)cccc2F)nc1-c1ccc(F)cc1F [VX-702] + Nc1ncn([C@H]2C[C@H](O)[C@@H](CO)O2)c(=O)n1 [Decitabine] (partner 2 µM)
Summary of the method: (§1)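 Relative viability is defined as nuclei in treated wells over nuclei in vehicle wells. Duplicate plates were run and medians reported. Lung cancer cell lines in 1536-well plates were dosed by pin tool one day after seeding, with one drug or with a fixed anchor-drug dose plus five library-drug doses (not always all listed) in √10 steps, and nuclei were counted after 5 days.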

[2] = compound: NC(=O)c1ccc(N(C(N)=O)c2c(F)cccc2F)nc1-c1ccc(F)cc1F [VX-702] + CC(=O)Nc1cccc(-n2c(=O)n(C3CC3)c(=O)c3c(Nc4ccc(I)cc4F)n(C)c(=O)c(C)c32)c1 [Trametinib] (partner 0.02 µM)
Summary of the method: as §1

[3] = compound: NC(=O)c1ccc(N(C(N)=O)c2c(F)cccc2F)nc1-c1ccc(F)cc1F [VX-702] + C[C@]1(O)C[C@@H](c2nc(-c3ccc4ccc(-c5ccccc5)nc4c3)c3c(N)nccn32)C1 [Linsitinib] (partner 1 µM)
Summary of the method: as §1

[4] = compound: CC(C)(C)c1nc(-c2cccc(NS(=O)(=O)c3c(F)cccc3F)c2F)c(-c2ccnc(N)n2)s1 [Dabrafenib] + CCNC(=O)c1noc(-c2cc(C(C)C)c(O)cc2O)c1-c1ccc(CN2CCOCC2)cc1 [Luminespib] (partner 0.01 µM)
Summary of the method: as §1

Row | Cell Line | relative viability ([1]; first compound 0.02 µM) | relative viability ([1]; first compound 0.2 µM) | relative viability ([1]; first compound 0.6325 µM) | relative viability ([1]; first compound 2 µM) | relative viability ([2]; first compound 0.02 µM) | relative viability ([2]; first compound 0.2 µM) | relative viability ([2]; first compound 0.6325 µM) | relative viability ([2]; first compound 2 µM) | relative viability ([3]; first compound 0.02 µM) | relative viability ([3]; first compound 0.2 µM) | relative viability ([3]; first compound 0.6325 µM) | relative viability ([3]; first compound 2 µM) | relative viability ([4]; first compound 0.003 µM) | relative viability ([4]; first compound 0.009487 µM) | relative viability ([4]; first compound 0.03 µM) | relative viability ([4]; first compound 0.09487 µM) | relative viability ([4]; first compound 0.3 µM)
1 | NCI-H661 | 0.567 | 0.583 | 0.58 | 0.591 | 0.682 | 0.599 | 0.637 | 0.71 | 0.523 | 0.587 | 0.5 | 0.826 | 0.985 | 0.927 | 0.912 | 0.758 | 0.855
2 | NCI-H650 | 0.385 | 0.344 | 0.3 | 0.324 | 0.92 | 0.978 | 1.1 | 1.08 | 0.927 | – | 1.07 | 1.12 | – | 0.832 | 0.688 | 0.56 | 0.461
3 | NCI-H2009 | 0.392 | 0.435 | 0.454 | 0.399 | 0.284 | 0.28 | 0.255 | 0.272 | 1.33 | 1.23 | 1.21 | 1.34 | 1.01 | 0.967 | 0.911 | 0.879 | 0.79
4 | LC-2-ad | 0.849 | 0.807 | 0.821 | 0.776 | 0.948 | 0.916 | 0.921 | 0.97 | 0.778 | 0.799 | 0.922 | 0.885 | – | 1.16 | 1.27 | 1.04 | 0.947
5 | HCC-366 | 0.331 | 0.305 | 0.353 | 0.266 | 0.341 | 0.314 | 0.269 | 0.266 | 0.592 | 0.375 | 0.615 | 0.47 | – | – | – | – | –
6 | UMC-11 | 0.515 | 0.616 | 0.643 | 0.791 | 0.682 | 0.544 | 0.562 | 0.846 | 0.949 | 0.985 | 0.851 | 1.08 | 1.14 | 1.12 | 0.85 | 0.939 | 1.07
7 | PC-3 [JPC-3] | 0.804 | 0.888 | 0.888 | 0.853 | 0.644 | 0.76 | 0.768 | 0.855 | 0.966 | 1.01 | 1.03 | 1.05 | 0.782 | 0.649 | 0.655 | 0.736 | 0.696
8 | NCI-H596 | 1.3 | 1.55 | 1.15 | 1.16 | 0.908 | 0.832 | 0.835 | 0.886 | 0.996 | 1.1 | 1.02 | 1.1 | – | 1.03 | 0.691 | 0.885 | 0.927
9 | NCI-H441 | 0.238 | 0.258 | 0.251 | 0.212 | 0.349 | 0.386 | 0.351 | 0.538 | 0.699 | 0.429 | 0.369 | 0.747 | – | 0.317 | 0.389 | 0.461 | 0.347
10 | LOU-NH91 | 0.837 | 0.832 | 0.815 | 0.766 | 0.828 | 0.763 | 0.768 | 0.743 | 1.01 | 0.926 | 0.933 | 0.687 | 0.262 | 0.36 | 0.28 | 0.343 | 0.294
